Calls of active or inactive are those of the source. The calls are words filed in the database; no cut-off is given here.
Tests used:
[1] = system: BMMC; experiment: Inhibition of osteoclastogenesis in mouse BMMC at 2 uM by TRAP staining based assay; format: functional
[2] = Partition coefficient, logP of compound; format: physicochemical; conditions: octanol/water
[3] = system: BMMC; experiment: Inhibition of osteoclastogenesis in mouse BMMC at 1 uM by TRAP staining based assay; format: functional
[4] = system: BMMC; experiment: Inhibition of osteoclastogenesis in mouse BMMC at 0.5 uM by TRAP staining based assay; format: functional
[5] = system: BMMC; experiment: Inhibition of osteoclastogenesis in mouse BMMC by TRAP staining based assay; format: functional, cell-based
[6] = system: BMMC; experiment: Inhibition of osteoclast differentiation in mouse BMMCs assessed as reduction in Mmp9 mRNA expression at 1.25 uM incubated for 3 days by qRT-PCR analysis; format: functional, cell-based; conditions: time 3.0 day
[7] = Effect on mouse BMMCs viability at below 10 uM incubated for 48 hrs by MTT assay; format: toxicity, cell-based; conditions: bmmc
[8] = system: BMMC; experiment: Inhibition RANKL-induced F-actin ring formation in mouse BMMC at 0.625 to 2.5 uM incubated for 4 days by immunofluorescence assay; format: functional, cell-based; conditions: dose 0.625-2.5 µM, time 4.0 day
[9] = system: Mus musculus; experiment: Inhibition of osteoclast differentiation in ovariectomized osteoporosis mouse model at 10 mg/kg, ip administered for 4 weeks; format: functional, organism-based
[10] = system: BMMC; experiment: Inhibition of osteoclast differentiation in mouse BMMCs assessed as reduction in c-fos protein expression at 1.25 uM incubated for 3 days by immunoblotting analysis; format: functional, cell-based; conditions: time 3.0 day
[11] = system: BMMC; experiment: Inhibition of osteoclast differentiation in mouse BMMCs assessed as reduction in Nfatc1 mRNA expression at 1.25 uM incubated for 3 days by qRT-PCR analysis; format: functional, cell-based; conditions: time 3.0 day
[12] = system: BMMC; experiment: Inhibition of osteoclast differentiation in mouse BMMCs assessed as reduction in Dc-stamp mRNA expression at 1.25 uM incubated for 3 days by qRT-PCR analysis; format: functional, cell-based; conditions: time 3.0 day
[13] = system: BMMC; experiment: Inhibition of osteoclast differentiation in mouse BMMCs assessed as reduction in NFATc1 protein expression at 1.25 uM incubated for 3 days by immunoblotting analysis; format: functional, cell-based; conditions: time 3.0 day
[14] = system: Calvarial osteoblast; experiment: Effect on cell viability in osteoblast cells (unknown origin) upto 4 uM incubated for 48 hrs by MTT assay; format: toxicity, cell-based
[15] = system: BMMC; experiment: Inhibition RANKL-induced bone resorption in mouse BMMC at 0.625 to 2.5 uM incubated for 4 days by immunofluorescence assay; format: functional, cell-based; conditions: dose 0.625-2.5 µM, time 4.0 day
[16] = system: BMMC; experiment: Inhibition of osteoclast differentiation in mouse BMMCs assessed as reduction in Cathepsin K protein expression at 1.25 uM incubated for 3 days by immunoblotting analysis; format: functional, cell-based; conditions: time 3.0 day
[17] = system: BMMC; experiment: Inhibition of RANKL mediated […] differentiation in mouse BMMC at 0.25 to 2 uM incubated for 4 days by TRAP staining based assay; format: functional, cell-based; conditions: dose 0.25-2 µM, time 4.0 day
[18] = system: BMMC; experiment: Inhibition of osteoclast differentiation in mouse BMMCs assessed as reduction in […] mRNA expression at 1.25 uM incubated for 3 days by qRT-PCR analysis; format: functional, cell-based; conditions: time 3.0 day
[19] = system: BMMC; experiment: Inhibition of RANKL mediated […] differentiation in mouse BMMC incubated for 4 days by TRAP staining based assay; format: functional, cell-based; conditions: dose 0.25-2 µM, time 4.0 day
[20] = system: BMMC; experiment: Inhibition of osteoclastogenesis in mouse BMMC assessed as reduction in fusion of mononuclear osteoclast cells to form large multinucleated osteoclast cells at 0.25 to 2 uM; format: functional, cell-based; conditions: dose 0.25-2 µM
[21] = system: BMMC; experiment: Inhibition of osteoclast differentiation in mouse BMMCs assessed as reduction in Cathepsin K mRNA expression at 1.25 uM incubated for 3 days by qRT-PCR analysis; format: functional, cell-based; conditions: time 3.0 day
[22] = system: BMMC; experiment: Inhibition of osteoclast differentiation in mouse BMMCs assessed as reduction in ACP5 mRNA expression at 1.25 uM incubated for 3 days by qRT-PCR analysis; format: functional, cell-based; conditions: time 3.0 day

| Compound | logP [2] | inhibition at 2 µM [1] | inhibition at 1 µM [3] | inhibition at 0.5 µM [4] | IC50 [5] | also measured |
| --- | --- | --- | --- | --- | --- | --- |
| O=C(NC1CC1)c1ccc(CN2CCN(S(=O)(=O)c3cccc(Cl)c3)CC2)cc1 | 3.3 | 71.7% | 25.2% | -49.2% | 3.03 µM |  |
| O=C(NC1CC1)c1ccc(CN2CCN(S(=O)(=O)c3ccc([N+](=O)[O-])cc3)CC2)cc1 | 2.6 | 46.7% | 25.5% | 48.9% | 1.69 µM |  |
| CC(C)(C)c1ccc(S(=O)(=O)N2CCN(Cc3ccc(C(=O)NC4CC4)cc3)CC2)cc1 | 4.1 | 100% | 74.1% | 23.6% | 0.55 µM |  |
| COc1ccc(S(=O)(=O)N2CCN(Cc3ccc(C(=O)NC4CC4)cc3)CC2)cc1 | 2.6 | 10.6% | -13.8% | -9.9% | 221 µM |  |

More lines, main results first:

| logP [2] | Compound | inhibition at 2 µM [1] | inhibition at 1 µM [3] | inhibition at 0.5 µM [4] | IC50 [5] | also measured |
| --- | --- | --- | --- | --- | --- | --- |
| 2.3 | CC(=O)c1ccc(S(=O)(=O)N2CCN(Cc3ccc(C(=O)NC4CC4)cc3)CC2)cc1 | 14.7% | 16.9% | 17.6% | 7.24 µM |  |
| 2.7 | COc1cccc(S(=O)(=O)N2CCN(Cc3ccc(C(=O)NC4CC4)cc3)CC2)c1 | -5.21% | -20.9% | -22.8% |  |  |
| 5.7 | CCCCCCCCS(=O)(=O)N1CCN(Cc2ccc(C(=O)NC3CC3)cc2)CC1 | 84% | 33.2% | 23.9% | 1.14 µM |  |
| 3.5 | O=C(NC1CC1)c1ccc(CN2CCN(S(=O)(=O)c3ccc(C(F)(F)F)cc3)CC2)cc1 | 96.8% | 72% | 17.7% | 0.64 µM | inhibition [6]: Active; Activity [7]: Non-Toxic; inhibition [8]: Active; inhibition [9]: inactive; inhibition [10]: Active; inhibition [11]: Active; inhibition [12]: Active; inhibition [13]: Active; Activity [14]: Non-Toxic; inhibition [15]: Active; inhibition [16]: Active; inhibition [17]: Active; inhibition [18]: Active; inhibition [19]: Dose-Dependent Effect; inhibition [20]: Active; inhibition [21]: Active; inhibition [22]: Active |
| 4.1 | O=C(NC1CC1)c1ccc(CN2CCN(S(=O)(=O)c3ccc(-c4ccccc4)cc3)CC2)cc1 | 100% | 64.6% | 9.56% | 0.75 µM |  |
